The nature of series [1]: Plasma half life after oral administration. Type of series: in vivo. Conditions: human. From the text:
The immediate release pharmaceutical compositions of the invention, and which are useful in the kits and methods of the invention are “immediate release” tablet dosage forms. The tablets of the invention have neither the pharmacokinetic nor physical characteristics of extended release pharmaceutical dosage forms. Thus, a tablet of the invention will disintegrate or dissolve rapidly, preferably within one hour of administration, and administration of a tablet of the invention will result in a rapid rise in the blood plasma concentration of 5-methyl-2-(2′-chloro-6′-fluoroanilino)phenylacetic acid.

A short description of series [2]: Clinical efficacy of once a day oral dose (anti-inflammatory, analgesic). Type of series: in vivo, humans. As for the experimental part: Such an agent is particularly useful in the treatment of chronic indications, such as rheumatoid arthritis and osteoarthritis as well as Alzheimer's Disease and prophylaxis of colon cancer, where the drug needs to be taken every day for the duration of a subject's life, because compliance is much easier with once a day dosing.
A single, 400 mg tablet that is easy to swallow facilitates compliance with a once-a-day, 400 mg dose treatment regimen.

The nature of series [3]: Compressibility of the drug substance. The format is physicochemical. Conditions: drug substance and its pharmaceutically acceptable salts. How it is done: WO 99/11605, published Mar. 11, 1999 discloses 5-alkyl-2-arylaminophenylacetic acids and derivatives thereof as potent, selective inhibitors of cyclooxygenase-2. […] This active agent, when administered once a day, in a single, immediate release tablet formulation in an amount of about 400 mg, where the active agent comprises about 65% by weight of the tablet, provides effective anti-inflammatory treatment over a 24 hour period, without the use of extended release pharmaceutical formulation excipients and technology, and in a tablet form which is of a size that is easy to swallow.

Structures are written as SMILES.

For orientation: half-life means the time in which the quantity being followed falls by half. With `Cc1ccc(Nc2c(F)cccc2Cl)c(CC(=O)O)c1` [5-methyl-2-(2′-chloro-6′-fluoroanilino)phenylacetic acid], in series [1], the half-life lay in the range of 3 to 6 h. In series [2] (400 mg), the Analgesic efficacy result is given as “effective analgesic dose”. In series [2] (humans, single oral dose of about 400 mg per day, immediate-release tablet), the “Anti-inflammatory treatment, duration of action” value is “effective, safe anti-inflammatory treatment over a 24 hour period”. Further, in series [3], the Compressibility result was “poor compressibility”.

Source of the values: patent US20070231382A1, “Pharmaceutical composition” (priority 2001, published 2007).
